Test results reported in patent US4526989A, “1,4-Bis (substituted-amino)-5,8-dihydroxy-anthraquinones and leuco bases thereof” (priority 1979, dated 1985).
Where two headings read alike, the source gives them in different places.

Legend:
melanotic melanoma B16 = experiment: Melanotic Melanoma B16 test; assay type: in vivo, C57BC/6 mice
Experimental: The animals used are C57BC/6 mice, all of the same sex, weighing a minimum of 17 g. and all within a 3-g. weight range. There are normally 10 animals per test group. A one-gram portion of melanotic melanoma B16 tumor is homogenized in 10 ml. of cold balanced salt solution and a 0.5-ml. aliquot of the homogenate is implanted intraperitoneally into each of the test mice. The test compounds are administered intraperitoneally on days one through 9 (relative to tumor inoculation) at various doses. The animals are weighed and survivors are recorded on a regular basis for 60 days. The median survival time and the ratio of survival time for treated (T)/control (C) animals are calculated. […] The criterion for efficacy is T/C×100≥125%.

[1] = tested on: lymphocytic leukemia P388; experiment: Lymphocytic leukemia P388 test (intraperitoneal administration); assay type: in vivo, DBA/2 mice
Experimental: The animals used are DBA/2 mice all of one sex, weighing a minimum of 17 g. and all within a 3 gram weight range. There are 5 or 6 animals per test group. The tumor transplant is by intraperitoneal injection of 0.1 ml. of dilute ascitic fluid containing 10^6 cells of lymphocytic leukemia P388. The test compounds are administered intraperitoneally on days one, 5 and 9 (relative to tumor inoculation) at various doses. The animals are weighed and survivors are recorded on a regular basis for 30 days. The median survival time and the ratio of survival time for treated (T)/control (C) animals are calculated.

[2] = 25 mg./kg. i.p., days 1, 5 and 9
[3] = Mus musculus, P388, ip, 25 mg./kg. i.p., days 1, 5 and 9, efficacy ≥125%, read-out: T/C × 100
[4] = 50 mg./kg. i.p., days 1 through 9
[5] = Mus musculus, ip, 50 mg./kg. i.p., days 1 through 9, efficacy ≥125%, read-out: T/C × 100
[6] = 12 mg./kg. i.p., days 1, 5 and 9
[7] = 50 mg./kg. i.p., days 1, 5 and 9
[8] = 100 mg./kg. i.p., days 1, 5 and 9
[9] = 200 mg./kg. i.p., days 1, 5 and 9
[10] = Mus musculus, P388, ip, 12 mg./kg. i.p., days 1, 5 and 9, efficacy ≥125%, read-out: T/C × 100
[11] = Mus musculus, P388, ip, 50 mg./kg. i.p., days 1, 5 and 9, efficacy ≥125%, read-out: T/C × 100
[12] = Mus musculus, P388, ip, 100 mg./kg. i.p., days 1, 5 and 9, efficacy ≥125%, read-out: T/C × 100
[13] = Mus musculus, P388, ip, 200 mg./kg. i.p., days 1, 5 and 9, efficacy ≥125%, read-out: T/C × 100
[14] = 25 mg./kg. i.p., days 1 through 9
[15] = Mus musculus, ip, 25 mg./kg. i.p., days 1 through 9, efficacy ≥125%, read-out: T/C × 100
[16] = 12 mg./kg. i.p., days 1 through 9
[17] = Mus musculus, P388, ip, read-out: T/C × 100
[18] = Mus musculus, ip, 12 mg./kg. i.p., days 1 through 9, efficacy ≥125%, read-out: T/C × 100

CNCCNc1ccc(NCCNC)c2c1C(=O)c1c(O)ccc(O)c1C2=O.Cl.Cl [1,4-Bis[2-(methylamino)ethylamino]-5,8-dihydroxyanthraquinone dihydrochloride]
Median Survival Time (melanotic melanoma B16; 0.19 mg./kg. i.p., days 1 through 9): 29.5 days
Median Survival Time (melanotic melanoma B16; 0.39 mg./kg. i.p., days 1 through 9): 25.0 days
Median Survival Time (melanotic melanoma B16; 0.78 mg./kg. i.p., days 1 through 9): 35.0 days
Median Survival Time (melanotic melanoma B16; 1.5 mg./kg. i.p., days 1 through 9): 33.0 days
Median Survival Time (melanotic melanoma B16; 3.1 mg./kg. i.p., days 1 through 9): 49.0 days
Median Survival Time (melanotic melanoma B16; 6.2 mg./kg. i.p., days 1 through 9): 26.5 days
Median Survival Time (melanotic melanoma B16; 12.5 mg./kg. i.p., days 1 through 9): 11.5 days
response vs control in vivo at 0.19 mg/kg (melanotic melanoma B16; Mus musculus, ip, 0.19 mg./kg. i.p., days 1 through 9, efficacy ≥125%, read-out: T/C × 100): 151%
response vs control in vivo at 0.39 mg/kg (melanotic melanoma B16; Mus musculus, ip, 0.39 mg./kg. i.p., days 1 through 9, efficacy ≥125%, read-out: T/C × 100): 128%
response vs control in vivo at 0.78 mg/kg (melanotic melanoma B16; Mus musculus, ip, 0.78 mg./kg. i.p., days 1 through 9, efficacy ≥125%, read-out: T/C × 100): 179%
response vs control in vivo at 1.5 mg/kg (melanotic melanoma B16; Mus musculus, ip, 1.5 mg./kg. i.p., days 1 through 9, efficacy ≥125%, read-out: T/C × 100): 169%
response vs control in vivo at 3.1 mg/kg (melanotic melanoma B16; Mus musculus, ip, 3.1 mg./kg. i.p., days 1 through 9, efficacy ≥125%, read-out: T/C × 100): 251%
response vs control in vivo at 6.2 mg/kg (melanotic melanoma B16; Mus musculus, ip, 6.2 mg./kg. i.p., days 1 through 9, efficacy ≥125%, read-out: T/C × 100): 136%
response vs control in vivo at 12.5 mg/kg (melanotic melanoma B16; Mus musculus, ip, 12.5 mg./kg. i.p., days 1 through 9, efficacy ≥125%, read-out: T/C × 100): 59%
Median Survival Time ([1]; 0.04 mg./kg. i.p., days 1, 5 and 9): 17.0 days
Median Survival Time ([1]; 0.09 mg./kg. i.p., days 1, 5 and 9): 18.0 days
Median Survival Time ([1]; 0.19 mg./kg. i.p., days 1, 5 and 9): 18.5 days
Median Survival Time ([1]; 0.39 mg./kg. i.p., days 1, 5 and 9): 19.5 days
Median Survival Time ([1]; 0.78 mg./kg. i.p., days 1, 5 and 9): 18.5 days
Median Survival Time ([1]; 1.5 mg./kg. i.p., days 1, 5 and 9): 22.5 days
Median Survival Time ([1]; 3.1 mg./kg. i.p., days 1, 5 and 9): 22.0 days
Median Survival Time ([1]; 6.2 mg./kg. i.p., days 1, 5 and 9): 20.0 days
Median Survival Time ([1]; 12.5 mg./kg. i.p., days 1, 5 and 9): 16.0 days
Median Survival Time [1, 2]: 9.0 days
response vs control in vivo at 0.19 mg/kg ([1]; Mus musculus, P388, ip, 0.19 mg./kg. i.p., days 1, 5 and 9, efficacy ≥125%, read-out: T/C × 100): 176%
response vs control in vivo at 0.04 mg/kg ([1]; Mus musculus, P388, ip, 0.04 mg./kg. i.p., days 1, 5 and 9, efficacy ≥125%, read-out: T/C × 100): 162%
response vs control in vivo at 0.09 mg/kg ([1]; Mus musculus, P388, ip, 0.09 mg./kg. i.p., days 1, 5 and 9, efficacy ≥125%, read-out: T/C × 100): 171%
response vs control in vivo at 0.39 mg/kg ([1]; Mus musculus, P388, ip, 0.39 mg./kg. i.p., days 1, 5 and 9, efficacy ≥125%, read-out: T/C × 100): 186%
response vs control in vivo at 0.78 mg/kg ([1]; Mus musculus, P388, ip, 0.78 mg./kg. i.p., days 1, 5 and 9, efficacy ≥125%, read-out: T/C × 100): 176%
response vs control in vivo at 1.5 mg/kg ([1]; Mus musculus, P388, ip, 1.5 mg./kg. i.p., days 1, 5 and 9, efficacy ≥125%, read-out: T/C × 100): 214%
response vs control in vivo at 3.1 mg/kg ([1]; Mus musculus, P388, ip, 3.1 mg./kg. i.p., days 1, 5 and 9, efficacy ≥125%, read-out: T/C × 100): 210%
response vs control in vivo at 6.2 mg/kg ([1]; Mus musculus, P388, ip, 6.2 mg./kg. i.p., days 1, 5 and 9, efficacy ≥125%, read-out: T/C × 100): 190%
response vs control in vivo at 12.5 mg/kg ([1]; Mus musculus, P388, ip, 12.5 mg./kg. i.p., days 1, 5 and 9, efficacy ≥125%, read-out: T/C × 100): 152%
response vs control in vivo at 25 mg/kg [1, 3]: 86%

CCN(CC)CCNc1ccc(NCCN(CC)CC)c2c1C(=O)c1c(O)ccc(O)c1C2=O [1,4-Bis[(2-diethylaminoethyl)amino]-5,8-dihydroxyanthraquinone]
Median Survival Time (melanotic melanoma B16; [4]): 20.5 days
response vs control in vivo at 50 mg/kg (melanotic melanoma B16; [5]): 125%
Median Survival Time [1, 6]: 12.0 days
Median Survival Time [1, 2]: 16.0 days
Median Survival Time [1, 7]: 15.0 days
Median Survival Time [1, 8]: 18.0 days
Median Survival Time [1, 9]: 20.0 days
response vs control in vivo at 12 mg/kg [1, 10]: 126%
response vs control in vivo at 25 mg/kg [1, 3]: 168%
response vs control in vivo at 50 mg/kg [1, 11]: 158%
response vs control in vivo at 100 mg/kg [1, 12]: 189%
response vs control in vivo at 200 mg/kg [1, 13]: 210%

CN(C)CCCNc1ccc(NCCCN(C)C)c2c1C(=O)c1c(O)ccc(O)c1C2=O [1,4-Bis[(3-dimethylaminopropyl)amino]-5,8-dihydroxyanthraquinone]
Median Survival Time (melanotic melanoma B16; [14]): 20.0 days
response vs control in vivo at 25 mg/kg (melanotic melanoma B16; [15]): 125%
Median Survival Time [1, 6]: 15.0 days
Median Survival Time [1, 2]: 15.5 days
Median Survival Time [1, 7]: 15.5 days
response vs control in vivo at 12 mg/kg [1, 10]: 125%
response vs control in vivo at 25 mg/kg [1, 3]: 129%
response vs control in vivo at 50 mg/kg [1, 11]: 129%

NCCNC1=C2C(=O)c3c(O)ccc(O)c3C(=O)C2=C(NCCN)CC1 [Leuco-1,4-bis(2-aminoethylamino)-5,8-dihydroxyanthraquinone]
Median Survival Time (melanotic melanoma B16; [16]): 32.0 days
response vs control in vivo at 12 mg/kg (melanotic melanoma B16; Mus musculus, ip, read-out: T/C × 100): 200%
Median Survival Time [1, 6]: 18.0 days
Median Survival Time [1, 2]: 19.0 days
Median Survival Time [1, 7]: 23.0 days
Median Survival Time [1, 8]: 19.0 days
response vs control in vivo at 12 mg/kg [1, 17]: 150%
response vs control in vivo at 100 mg/kg [1, 17]: 158%
response vs control in vivo at 25 mg/kg [1, 3]: 158%
response vs control in vivo at 50 mg/kg [1, 11]: 192%

NCCCNC1=C2C(=O)c3c(O)ccc(O)c3C(=O)C2=C(NCCCN)CC1 [Leuco-1,4-bis(3-aminopropylamino)-5,8-dihydroxyanthraquinone]
Median Survival Time (melanotic melanoma B16; 6 mg./kg. i.p., days 1 through 9): 22.5 days
Median Survival Time (melanotic melanoma B16; [16]): 23.5 days
Median Survival Time (melanotic melanoma B16; [14]): 27.0 days
Median Survival Time (melanotic melanoma B16; [4]): 31.5 days
response vs control in vivo at 6 mg/kg (melanotic melanoma B16; Mus musculus, ip, 6 mg./kg. i.p., days 1 through 9, efficacy ≥125%, read-out: T/C × 100): 141%
response vs control in vivo at 12 mg/kg (melanotic melanoma B16; [18]): 147%
response vs control in vivo at 25 mg/kg (melanotic melanoma B16; [15]): 169%
response vs control in vivo at 50 mg/kg (melanotic melanoma B16; [5]): 197%
Median Survival Time [1, 6]: 16.0 days
Median Survival Time [1, 2]: 18.0 days
Median Survival Time [1, 7]: 16.0 days
Median Survival Time [1, 8]: 18.0 days
Median Survival Time [1, 9]: 18.0 days
response vs control in vivo at 12 mg/kg [1, 10]: 133%
response vs control in vivo at 25 mg/kg [1, 3]: 150%
response vs control in vivo at 50 mg/kg [1, 11]: 133%
response vs control in vivo at 100 mg/kg [1, 12]: 150%
response vs control in vivo at 200 mg/kg [1, 13]: 150%

NCCCCNC1=C2C(=O)c3c(O)ccc(O)c3C(=O)C2=C(NCCCCN)CC1 [Leuco-1,4-bis(4-aminobutylamino)-5,8-dihydroxyanthraquinone]
Median Survival Time (melanotic melanoma B16; [16]): 16.0 days
Median Survival Time (melanotic melanoma B16; [14]): 18.5 days
Median Survival Time (melanotic melanoma B16; [4]): 20.0 days
Median Survival Time (melanotic melanoma B16; 100 mg./kg. i.p., days 1 through 9): 21.0 days
response vs control in vivo at 12 mg/kg (melanotic melanoma B16; [18]): 94%
response vs control in vivo at 25 mg/kg (melanotic melanoma B16; [15]): 109%
response vs control in vivo at 50 mg/kg (melanotic melanoma B16; [5]): 118%
response vs control in vivo at 100 mg/kg (melanotic melanoma B16; Mus musculus, ip, 100 mg./kg. i.p., days 1 through 9, efficacy ≥125%, read-out: T/C × 100): 124%
Median Survival Time [1, 8]: 14.0 days
Median Survival Time [1, 9]: 17.0 days
Median Survival Time ([1]; 300 mg./kg. i.p., days 1, 5 and 9): 18.0 days
Median Survival Time ([1]; 400 mg./kg. i.p., days 1, 5 and 9): 20.0 days
response vs control in vivo at 100 mg/kg [1, 12]: 133%
response vs control in vivo at 200 mg/kg [1, 13]: 162%
response vs control in vivo at 300 mg/kg ([1]; Mus musculus, P388, ip, 300 mg./kg. i.p., days 1, 5 and 9, efficacy ≥125%, read-out: T/C × 100): 171%
response vs control in vivo at 400 mg/kg ([1]; Mus musculus, P388, ip, 400 mg./kg. i.p., days 1, 5 and 9, efficacy ≥125%, read-out: T/C × 100): 190%
